According to patent US20050019854A1, “Novel method for screening inhibitors of the linkage between the neuronal nitric oxide synthase associated protein and the protein inhibiting neuronal nitric oxide synthase” (priority 2001, published 2005):
Ends that are not written are not given here.

What was measured:
[1] = test system: islets of Langerhans of Zucker (fa/fa) rats; test: Glucose-induced insulin secretion in isolated islets of Zucker (fa/fa) rats (Example 4); type: cell-based, rat; settings: 2 g/L glucose; for reduction of the insulin response: 1 hour
Method: The islets of Langerhans of Zucker (fa/fa) rats are isolated using the collagenase digestion technique of Lacy et al. (Diabetes, 1967). After isolation, the islets are stabilized in Krebs-Ringer containing 0.75 g/L glucose for 45 minutes at 37° C. Groups of three islets are then incubated in Krebs-Ringer with 2 g/L glucose containing increasing concentrations of the molecule C24H18N4O5S (20-100 μM) for 1 hour at 37° C. The liquid supernatant is then recovered and insulin secretion measured by radioimmunology (see FIG. 8).

[2] = target: T1, binding of the PIN to the nNOS (Rattus norvegicus, UniProt P63170); test: ELISA: inhibition of the binding of GST-PIN to immobilized nNOS (Example 2, first method); settings: peptide 50 μg/ml
T1 construct: catalogue number not given; host or cells: PIN: E. coli BL21 (DE3)

[3] = target: T1, binding of the PIN to the nNOS; test: Surface plasmon resonance analysis of inhibition of PIN binding to immobilized nNOS (Example 3); settings: for inhibition of the binding of the PIN to the nNOS: SPR
PIN = target: T2, PIN (Rattus norvegicus, UniProt P63170); test: Surface plasmon resonance analysis of PIN binding to immobilized nNOS peptides (Example 1)
T2 construct: GST (N, cleaved yes); made in house; host or cells: E. coli BL21 (DE3), vector pGEX-2T

[4] = target: T3, GST-PIN (PIN with a glutathione S-transferase tag in the N-terminal position) (rat, UniProt P63170 1-89); test: competition ELISA, GST-PIN preincubated with peptide, nNOS immobilized
T3 construct: Produced in E. coli BL21(DE3) and purified on glutathione sepharose; The thrombin linker between GST and PIN is not described; also called GST-tagged PIN; not shown: Glutathione S-transferase tag of vector pGEX-2T (Pharmacia), N-terminal

[5] = target: T4, protein inhibitor of neuronal nitric oxide synthase (PIN), produced by thrombin digestion of GST-PIN (rat, UniProt P63170 1-89); test: SPR (BIAcore 2000), peptide immobilized, reference is the normal nNOS peptide
T4 construct: Released from GST-PIN (vector pGEX-2T) by thrombin digestion; also called PIN protein

[6] = target: T3, GST-PIN (PIN with a glutathione …); test: competition ELISA, GST-PIN preincubated with 50 µg/ml peptide, nNOS immobilized
[7] = target: T4, protein inhibitor of neuronal nitric …; test: SPR competition, PIN preincubated with peptide, nNOS immobilized

T3 sequence (P63170 whole entry): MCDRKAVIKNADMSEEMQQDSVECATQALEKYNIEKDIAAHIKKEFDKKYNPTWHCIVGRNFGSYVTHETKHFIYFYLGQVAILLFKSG
T1 sequence (P63170 whole entry): as above
T2 sequence (P63170 whole entry): as above
T4 sequence (P63170 whole entry): as above

Molecule: CCOc1ccc(N2C(=O)NC(=O)/C(=C\c3ccc(Sc4nc5ccccc5[nH]4)o3)C2=O)cc1 [C24H18N4O5S]
- concentration from which insulin secretion is blocked in a dose-dependant fashion ([1]; tested 20-100 μM): ≥ 50 µM
- reduction of the insulin response ([1]; molecule 50 μM): 36%
- reduction of the insulin response ([1]; molecule 100 μM): 79%

Molecule: CC[C@H](C)[C@H](N)C(=O)N[C@@H](CC(=O)O)C(=O)N[C@H](C(=O)NCC(=O)N[C@H](C(=O)N[C@@H](CCC(N)=O)C(=O)N[C@H](C(=O)N[C@@H](CC(=O)O)C(=O)N[C@@H](Cc1c[nH]c2ccccc12)C(=O)N[C@@H](CC(=O)O)C(=O)O)C(C)C)[C@@H](C)CC)C(C)C [SEQ ID NO: 4]
- inhibition of the binding of the PIN to the nNOS [2]: ≤ 78%
- inhibition of the binding of the PIN to the nNOS ([3]; peptide 1 μg/ml): 75%
- inhibition of the binding of the PIN to the nNOS ([3]; peptide 10 μg/ml): 98%

Molecule: KDTGIQVDWD [SEQ ID NO: 3]
- Ka (association constant) of PIN for immobilized peptide (PIN; BIAcore, PIN 5-40 μg/ml, global analysis): 1.86×10^8
- Kd (PIN; BIAcore, PIN 5-40 μg/ml, global analysis, read-out: Kd (dissociation constant) of PIN for immobilized peptide): 0.00538 µM
- affinity of the PIN protein for the mutant peptide relative to the normal peptide (PIN; SPR, ratio vs normal peptide): two times greater
- inhibition of the binding of the PIN to the nNOS [2]: up to 71%
- IC50 ([3]; SPR inhibition curves, FIG. 7D, read-out: inhibition constant (Ki: IC50)): 4 µM
- inhibition of the binding of the PIN to the nNOS ([3]; peptide 5 μg/ml): 59%
- inhibition of the binding of the PIN to the nNOS ([3]; peptide 30 μg/ml): 90%
- inhibition of the binding of the PIN to the nNOS ([3]; peptide 40 μg/ml): 91%

B1: mutant nNOS peptide represented by sequence SEQ ID NO: 3 (Lys-Asp-Thr-Gly-Ile-Gln-Val-Asp-Trp-Asp) (peptide)
peptide: KDTGIQVDWD
notes: Synthetic 10-mer; It differs from the normal peptide by Arg to Trp at position 9
- IC50 [4]: 5 µM
- fold affinity against the normal peptide [5]: 2 fold
- percent inhibition of PIN-nNOS binding [6]: 71%

B2: normal (non-mutant) nNOS peptide Lys Asp Thr Gly Ile Gln Val Asp Arg Asp (nNOS amino acids 229-238) (peptide)
peptide: KDTGIQVDRD
notes: Made by Fmoc solid phase synthesis; also called normal peptide; normal nNOS peptide
- IC50 [4]: 300 µM
- percent inhibition of PIN-nNOS binding [6]: 14%

B3: mutant nNOS peptide represented by sequence SEQ ID NO: 4 (Ile-Asp-Val-Gly-Ile-Gln-Val-Asp-Trp-Asp) (peptide)
peptide: IDVGIQVDWD
notes: Synthetic 10-mer
- IC50 [7]: 0.4 µM
- IC50 [4]: 0.5 µM
- percent inhibition of PIN-nNOS binding [6]: 78%
